The text below walks through data of patent US4022895A, “Substituted phenylglycylcephalosporins” (SmithKline Corporation, priority 1975, dated 1977).

Molecules are shown by their SMILES. ≈ marks a conversion by molar mass, not a printed value. Where two headings read alike, the source gives them in different places. Bounds are passed on as bounds.

Assay [1] relates to Klebs.pneumo. 4200. Put plainly: In vivo activity (ED50) against Klebs.pneumo. 4200. As to conditions: read-out: ED50.
Assay [2] concerns S.aureus HH 127. Briefly: In vitro antibacterial activity (MIC). The assay is classed as cell-based. As to conditions: Staphylococcus aureus, HH127; S.aureus HH 127, in vitro; read-out: MIC. On the procedure:
(§1) The compounds of this invention have antibacterial activity against Gram-positive and Gram-negative organisms. Minimum inhibitory concentrations (MIC's) ranged from 0.4 to >200 μg/ml in in vitro testing.

Assay [3] has as its system Kleb. pneumo. SK 1200. Briefly: In vitro antibacterial activity (MIC). The format is cell-based. As to conditions: Kleb. pneumo. SK 1200, in vitro; read-out: MIC. On the procedure: as §1
For assay [4], the system named is Shig. paradys HH 112. Briefly: In vitro antibacterial activity (MIC). The settings on record: Shig. paradys HH 112, in vitro; read-out: MIC. The assay is classed as cell-based. On the procedure:
as §1

Assay [5] relates to Kleb. pneumo. SK 4200. Briefly: In vitro antibacterial activity (MIC). The format is cell-based. The settings on record: Kleb. pneumo. SK 4200, in vitro; read-out: MIC. As to the method:
as §1

The test system of assay [6] is S.aureus SK 23390. Briefly: In vitro antibacterial activity (MIC). As to conditions: Staphylococcus aureus, SK23390; S.aureus SK 23390, in vitro; read-out: MIC. The assay is classed as cell-based. On the procedure: as §1
Assay [7] relates to E. coli HH 33779. Put plainly: In vitro antibacterial activity (MIC). The format is cell-based. The settings on record: Escherichia coli, HH33779; E. coli HH 33779, in vitro; read-out: MIC. As to the method:
as §1

Assay [8] concerns Sal. paratyphl ATCC 12176. Put plainly: In vitro antibacterial activity (MIC). The assay is classed as cell-based. As to the method: as §1
Assay [9] has as its system Strep. faecalis HH 34358. Put plainly: In vitro antibacterial activity (MIC). As to conditions: Enterococcus faecalis, HH34358; Strep. faecalis HH 34358, in vitro. The assay is classed as cell-based. As to the method:
as §1

Assay [10] has as its system E.coli SK 12140. Briefly: In vitro antibacterial activity (MIC). The format is cell-based. The settings on record: Escherichia coli, SK12140; E.coli SK 12140, in vitro; read-out: MIC. As to the method: as §1
For assay [11], the system named is Entero. aerog. ATCC 13048. Put plainly: In vitro antibacterial activity (MIC). The settings on record: Entero. aerog. ATCC 13048, in vitro; read-out: MIC. The format is cell-based. As to the method:
as §1

Assay [12] deals with Proteus morgani 179. Put plainly: In vitro antibacterial activity (MIC). The assay is classed as cell-based. The settings on record: Proteus morgani 179, in vitro; read-out: MIC. As to the method: as §1
Assay [13] relates to S.aureus Villaluz. Briefly: In vitro antibacterial activity (MIC). The format is cell-based. As to conditions: Staphylococcus aureus. On the procedure: as §1
In assay [14] the test system is E.coli 12140. Put plainly: In vivo activity (ED50) against E.coli 12140.

For the compound `COC(=O)CNc1ccc([C@@H](N)C(=O)NC2C(=O)N3C(C(=O)O)=C(CSc4nnc(C)s4)CSC23)cc1` (stereo partly drawn) [Compound No. 96146, 7-[D-α-Amino-α-(4'-carbomethoxymethylaminophenyl)-acetamido]-3-(5-methyl-1,3,4-thiadiazol-2-ylthiomethyl)-3-cephem-4-carboxylic acid], the ED50 – broadly, the dose at which the effect has come halfway, by size or by number of responders – in assay [1] (po, Klebs.pneumo. 4200, p.o.) amounted to 17 mg/kg; in assay [1] (sc, Klebs.pneumo. 4200, s.c.), 2.9 mg/kg; in [14] (Escherichia coli, 12140, po, E.coli 12140, p.o.) it was 16 mg/kg; in assay [14] (Escherichia coli, 12140, sc, E.coli 12140, s.c.), 4.7 mg/kg. For the same compound, the MIC – broadly, the least concentration at which growth counts as inhibited – in assay [2] is 6.3 µg/mL (≈ 11.2 µM); in assay [3] it was 50 µg/mL (≈ 88.5 µM); in assay [4], 25 µg/mL (≈ 44.3 µM); in assay [5] it was 50 µg/mL (≈ 88.5 µM); in [6], 6.3 µg/mL (≈ 11.2 µM); in assay [7], 100 µg/mL (≈ 177 µM). Moreover, the MIC in [8] was 25 µg/mL (≈ 44.3 µM); in assay [9], 25 µg/mL (≈ 44.3 µM); in assay [10] it was 50 µg/mL (≈ 88.5 µM); in assay [11] it was 100 µg/mL (≈ 177 µM); in assay [12] it was > 200 µg/mL; in assay [13] it was 50 µg/mL (≈ 88.5 µM).
